Results on six molecules are retold here after patent publication US20020115721A1, “Esters of alkycarboxy amino acids as prodrugs of modulators of the kainate receptor” (Annovis, Inc., priority 2000, published 2002).

In data set [1] the test system is Sprague-Dawley rats. As to the kind of experiment: Rat allodynia/hyperalgesia pain model after capsaicin. In kind it is in vivo. How it is done: This test is to determine the extent of protection by a test compound to neuropathic pain sensations. With the rat standing on an elevated perforated floor, mechano-allodynia is measured by applying from beneath a graded series of von Frey hairs to the mid-plantar region of the effected paws. The hair that evokes at least one withdrawal response is designated the threshold level when compared to the sham treated nerve. Alternatively, the paw can be illuminated with a noxious radiant heat and the time to paw withdrawal is measured.
The model is described by Bennett, Neuro. Report 5, 1438-1440 (1994), and references cited therein. He measures changes in withdrawal latency after chronic constriction injury; a rat is prepared by bilaterally exposing the sciatic nerves on both thighs. On one side, loosely fitting constrictive ligatures are tied around the nerve; the other side is sham manipulated but not ligated. The model can also be used to measure increases in sensitivity and decreases in latency after injection of an irritating or pain inducing substance such as capsaicin or carrageenan.
A total of 40 adult male Sprague-Dawley rats, 250-300 g, were used. Baseline measures of withdrawal responses evoked by heat and mechanical stimuli were determined for each hind paw and obtained for at least 4 consecutive days until withdrawal and latency responses were stable. Four groups of 10 rats each were sorted to establish equivalent baseline mean responses to heat and mechanical stimuli. Each group was randomly assigned to 1 of 4 treatment conditions: vehicle, 10, 50, or 100 mg/kg compound i.p. On test day, withdrawal responses to heat and mechanical stimuli were measured before intraperitoneal injection of the treatment condition. […] Capsaicin (10 μl of 0.1%, intraplantar) was administered 30 minutes after i.p. injection. Withdrawal responses to heat and mechanical stimuli were again measured 5 and 30 minutes post capsaicin. The contralateral paw served as an internal control. The experimenter was blind to the treatment condition.
The prodrugs were tested in the allodynia model after inducing pain with capsaicin.
A total of 24 adult male Sprague-Dawley rats, 250-300 g., were used and treated according to protocol described above using (2S,4R)-4-methyl glumatic acid methyl ester.
A total of 33 adult male Sprague-Dawley rats, 250-300 g., were treated according to protocol described above using (2S,4R)-4-methyl glumatic acid ethyl ester. The concentrations of the compound were […].

Data set [2] can be described thus: Prodrug hydrolysis to the acid form in plasma. In kind it is in vitro ADME. From the text:
The ester bond in any of the disclosed prodrug compositions can be readily cleaved in vivo. Therefore, prodrug compositions of Formula I can be hydrolyzed to the corresponding acids form in plasma.

Data set [3] deals with Sprague-Dawley rats. Put plainly: Rat allodynia/hyperalgesia pain model after capsaicin. The data set is classed as in vivo. The settings on record: 1 hour before capsaicin.
In data set [4] the test system is AMPA receptor as compared to the kainate receptor. The following applies: selectivity ratio; cited from earlier work.
In data set [5] the target is glycine site of the NMDA receptor (Homo sapiens, UniProt Q05586). The following applies: cited from earlier work.
For data set [6] the following is noted: cited from earlier work.

Turning to `COC(=O)[C@H](N)C[C@H](C)C(=O)OC.Cl`, the melting point lay within 138 to 139 °C.

Take `CCOC(=O)[C@H](N)C[C@H](C)C(=O)OCC.Cl`: the melting point fell in the range of 158 to 160 °C.

For the molecule `C[C@H](C[C@H](N)C(=O)O)C(=O)O` [Compound 1, (2S,4R)-4-Methyl glutamic acid], the “blocking hyperalgesia to heat” value with Sprague-Dawley rats [1] (10, 50, 100 mg/kg i.p., capsaicin) is on record as “effective”. Further, in the data set with Sprague-Dawley rats [1] (10, 50, and 100 mg/kg i.p., capsaicin intraplantar 30 minutes after injection), the blocking mechanical hyperalgesia result is on record as “effective”. Besides, the “mechanical hyperalgesia versus vehicle (p<0.05)” value in the data set with Sprague-Dawley rats [1] (5 minutes post capsaicin, all doses (10, 50, 100 mg/kg i.p.)) was “significantly different from vehicle”; in the data set with Sprague-Dawley rats [1] (30 minutes post capsaicin, 100 mg/kg i.p. only) it was “remained significantly different from vehicle”. In the data set on Sprague-Dawley rats [1] (30 minute time point), the “hyperalgesia to heat versus vehicle” value is recorded as “not significantly different from vehicle”. In addition, the “hyperalgesia to heat versus vehicle (p<0.05)” value in the data set on Sprague-Dawley rats [1] (all three doses (10, 50, 100 mg/kg i.p.), early time point) was “significantly different from vehicle”.

In the case of `COC(=O)[C@H](C)C[C@H](N)C(=O)OC.Cl` [Compound 2, (2S,4R)-4-Methyl Glutamic Acid Dimethyl Ester Hydrochloride], the melting point lay in the range of 138 to 139 °C. In addition, in the data set with Sprague-Dawley rats [1] (10 mg/kg i.p., capsaicin), the “hyperalgesia to mechanical stimuli (p<0.05)” value is on record as “reduced” and the “hyperalgesia to radiant heat (p<0.05)” value is reported as “reduced”. For the same molecule, the “hydrolysis to (2S,4R)-4-methyl glutamic acid (1)” value in data set [2] is “readily hydrolyzed”. The “prevention of development of hyperalgesia” value with Sprague-Dawley rats [3] (0.1 mg/kg i.p.) is recorded as “no effect”. Also, in the data set with Sprague-Dawley rats [3] (1 mg/kg i.p.), the hyperalgesia prevention entry is “about 40%”. Besides, the “prevention of development of hyperalgesia” value in the data set on Sprague-Dawley rats [3] (10 and 50 mg/kg i.p.) is “totally prevented”.

Turning to `CCOC(=O)[C@H](C)C[C@H](N)C(=O)OCC.Cl` [Compound 3, (2S,4R)-4-Methyl Glutamic Acid Diethyl Ester Hydrochloride], the melting point is 158 to 160 °C. The “blocking hyperalgesia to heat” value in the data set with Sprague-Dawley rats [1] (0.1 to 50 mg/kg i.p., capsaicin) is on record as “not effective”. Besides, the “blocking mechanical hyperalgesia (p<0.05)” value with Sprague-Dawley rats [1] (10 and 50 mg/kg i.p., capsaicin) is reported as “effective”.

Consider `NS(=O)(=O)c1cccc2c3c(cc([N+](=O)[O-])c12)=NC(=O)C(=O)N=3` [NBQX, 6-nitro-7-sulfamoylbenzoquinoxaline-2,3-dione], for which the “affinity for AMPA receptor as compared to kainate receptor” value in data set [4] is reported as “thirty”. In addition, the “binding to glycine site of NMDA receptor” value in data set [5] was “non-specifically binds”. The solubility in water result in data set [6] is “very limited”.

One may read the melting point as the temperature of the solid-liquid transition.
